US9840500B2, “Compounds as dual inhibitors of histone methyltransferases and DNA methyltransferases” (FUNDACIÓN PARA LA INVESTIGACIÓN MÉDICA APLICADA, priority 2014, dated 2017)

Experiments:
human G9a enzyme = target: T1, human G9a enzyme (Homo sapiens, UniProt Q96KQ7); experiment: G9a enzyme activity assay (TR-FRET); assay type: biochemical
T1 sequence (Q96KQ7 1-1210): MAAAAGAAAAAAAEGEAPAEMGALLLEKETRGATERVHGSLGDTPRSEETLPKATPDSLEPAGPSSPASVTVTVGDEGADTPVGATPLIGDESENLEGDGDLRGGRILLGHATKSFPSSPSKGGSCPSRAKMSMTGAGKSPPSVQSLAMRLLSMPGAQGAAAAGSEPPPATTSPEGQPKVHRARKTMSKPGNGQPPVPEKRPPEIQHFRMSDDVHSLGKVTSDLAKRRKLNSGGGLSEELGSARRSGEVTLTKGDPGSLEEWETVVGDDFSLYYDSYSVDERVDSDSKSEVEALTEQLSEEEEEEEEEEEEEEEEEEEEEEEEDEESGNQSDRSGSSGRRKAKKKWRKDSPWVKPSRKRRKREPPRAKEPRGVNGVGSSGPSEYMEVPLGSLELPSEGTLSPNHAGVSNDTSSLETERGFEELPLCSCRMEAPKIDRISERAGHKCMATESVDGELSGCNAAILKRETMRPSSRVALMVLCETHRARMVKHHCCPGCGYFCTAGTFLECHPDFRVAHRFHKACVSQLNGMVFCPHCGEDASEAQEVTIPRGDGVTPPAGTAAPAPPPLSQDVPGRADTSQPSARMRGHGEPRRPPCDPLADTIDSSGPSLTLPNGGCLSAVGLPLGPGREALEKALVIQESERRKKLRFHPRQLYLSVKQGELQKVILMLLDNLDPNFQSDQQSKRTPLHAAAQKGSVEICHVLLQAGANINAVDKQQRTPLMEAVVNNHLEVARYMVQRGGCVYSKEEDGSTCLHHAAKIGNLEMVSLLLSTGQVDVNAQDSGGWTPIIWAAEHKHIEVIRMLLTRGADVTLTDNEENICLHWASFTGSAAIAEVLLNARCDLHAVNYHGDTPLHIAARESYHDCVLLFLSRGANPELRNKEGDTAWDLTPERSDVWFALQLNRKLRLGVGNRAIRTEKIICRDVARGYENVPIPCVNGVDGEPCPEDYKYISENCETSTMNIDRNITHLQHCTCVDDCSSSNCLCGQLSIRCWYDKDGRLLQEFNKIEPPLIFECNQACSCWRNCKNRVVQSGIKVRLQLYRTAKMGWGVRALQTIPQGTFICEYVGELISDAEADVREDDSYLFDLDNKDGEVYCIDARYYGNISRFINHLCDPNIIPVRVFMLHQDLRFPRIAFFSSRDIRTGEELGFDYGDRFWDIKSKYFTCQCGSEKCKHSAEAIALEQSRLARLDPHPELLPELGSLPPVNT
Method: The biochemical assay to measure G9a enzyme activity relies on time-resolved fluorescence energy transfer (TR-FRET) between europium cryptate (donor) and XL665 (acceptor). […] The human G9a enzyme expressed in a baculovirus infected Sf9 cell expression system was obtained from BPS Biosciences (Cat. #51001). […] Final percentage of DMSO was 0.5%. • 2 μl of 1 nM G9a enzyme diluted in assay buffer. […] Final concentration 150 nM. • Then, add 5 μl of streptavidin XL665 beads. Final concentration of 16 μM. • Read the plate after 1 hour of incubation at room temperature.
(§1) For each well, fluorescence was measured at 620 nm and 665 nm. A ratio (665 nm/620 nm) was then calculated in order to minimize medium interferences. Positive control was obtained in the presence of the vehicle of the compounds. Negative control was obtained in the absence of G9a enzyme activity. Calculated IC50 values were determined using GraphPrism using 4-parameters inhibition curve.

DNMT1 = DNMT1 (Homo sapiens, UniProt P26358); experiment: DNMT1 enzyme activity assay (TR-FRET, EPIgeneous methyltransferase assay); assay type: biochemical
Method: The biochemical assay to measure DNMT1 enzyme activity relies on time-resolved fluorescence energy transfer (TR-FRET) between lumi4-Tb (donor) and d2 (acceptor) using the EPIgeneous methyltransferase assay (CisBio Cat#62SAHPEB). […] TR-FRET signal is inversely proportional to the concentration of SAH, product of DNMT1 enzyme activity, in the sample.
The human DNMT1 was obtained from Reaction Biology Corp. (Cat# DMT-21-124). […] Final percentage of DMSO was 0.5%. • 2 μl of 1 nM DNMT1 enzyme diluted in assay buffer.
as §1

CEMO-1 = experiment: Cell proliferation assay, CEMO-1 (ALL); assay type: cell-based, human; conditions: Homo sapiens; 48 hours of treatment; Table 3
Method: (§2) Cell proliferation was analyzed after 48 hours of in vitro treatment using the CellTiter 96 Aqueous One Solution Cell Proliferation Assay (Promega, Madison, Wis.). This is a colorimetric method for determining the number of viable cells in proliferation.
(§3) For the assay, suspension cells were cultured by triplicate at a density of 1×10^6 cells/ml in 96-well plates (100.000 cells/well, 100 μl/well), except for OCILY-3 and OCILY-10 cell lines which were cultured at a density of 0.5×10^6 cells/ml (50.000 cells/well, 100 μl/well) and for HepG2, Hep3B and PLC/PRF/5 cell ines which were cultured at a density of 3000 cells/well, 100 μl/well). Adherent cells were obtained from 80-90% confluent flasks and 100 μl of cells were seeded at a density of 5000 cells/well in 96-well plates by triplicate. Before addition of the compounds, adherent cells were allowed to attach to the bottom of the wells for 12 hours. In all cases, only the 60 inner wells were used to avoid any border effects.
(§4) After 48 hours of treatment, plates with suspension cells were centrifuged at 800 g for 10 minutes and medium was removed. The plates with adherent cells were flicked to remove medium. Then, cells were incubated with 100 ul/well of medium and 20 ul/well of CellTiter 96 Aqueous One Solution reagent. After 1-3 hours of incubation at 37° C., absorbance was measured at 490 nm in a 96-well plate reader. The background absorbance was measured in wells with only cell line medium and solution reagent. Data was calculated as a percentage of total absorbance of treated cell/absorbance of non treated cells.

LAL-CUN-2 = experiment: Cell proliferation assay, LAL-CUN-2 (ALL); assay type: cell-based; conditions: 48 hours of treatment; Table 3
Method: as §2, §3, §4

OCI-Ly3 = experiment: Cell proliferation assay, OCI-Ly3 (ABC-DLBCL); assay type: cell-based; conditions: Homo sapiens, 48 hours of treatment, Table 3
Method: as §2, §3, §4

OCI-Ly10 = experiment: Cell proliferation assay, OCI-Ly10 (ABC-DLBCL); assay type: cell-based; conditions: Homo sapiens, 48 hours of treatment, Table 3
Method: as §2, §3, §4

HepG2 = experiment: Cell proliferation assay, HepG2 (HCC); assay type: cell-based; conditions: Homo sapiens, 48 hours of treatment, Table 3
Method: as §2, §3, §4

Hep3B = experiment: Cell proliferation assay, Hep3B (HCC); assay type: cell-based; conditions: Homo sapiens, 48 hours of treatment, Table 3
Method: as §2, §3, §4

PLC/PRF/5 = experiment: Cell proliferation assay, PLC/PRF/5 (HCC); assay type: cell-based; conditions: Homo sapiens, 48 hours of treatment, Table 3
Method: as §2, §3, §4

DNMT1, sequence (P26358 whole entry): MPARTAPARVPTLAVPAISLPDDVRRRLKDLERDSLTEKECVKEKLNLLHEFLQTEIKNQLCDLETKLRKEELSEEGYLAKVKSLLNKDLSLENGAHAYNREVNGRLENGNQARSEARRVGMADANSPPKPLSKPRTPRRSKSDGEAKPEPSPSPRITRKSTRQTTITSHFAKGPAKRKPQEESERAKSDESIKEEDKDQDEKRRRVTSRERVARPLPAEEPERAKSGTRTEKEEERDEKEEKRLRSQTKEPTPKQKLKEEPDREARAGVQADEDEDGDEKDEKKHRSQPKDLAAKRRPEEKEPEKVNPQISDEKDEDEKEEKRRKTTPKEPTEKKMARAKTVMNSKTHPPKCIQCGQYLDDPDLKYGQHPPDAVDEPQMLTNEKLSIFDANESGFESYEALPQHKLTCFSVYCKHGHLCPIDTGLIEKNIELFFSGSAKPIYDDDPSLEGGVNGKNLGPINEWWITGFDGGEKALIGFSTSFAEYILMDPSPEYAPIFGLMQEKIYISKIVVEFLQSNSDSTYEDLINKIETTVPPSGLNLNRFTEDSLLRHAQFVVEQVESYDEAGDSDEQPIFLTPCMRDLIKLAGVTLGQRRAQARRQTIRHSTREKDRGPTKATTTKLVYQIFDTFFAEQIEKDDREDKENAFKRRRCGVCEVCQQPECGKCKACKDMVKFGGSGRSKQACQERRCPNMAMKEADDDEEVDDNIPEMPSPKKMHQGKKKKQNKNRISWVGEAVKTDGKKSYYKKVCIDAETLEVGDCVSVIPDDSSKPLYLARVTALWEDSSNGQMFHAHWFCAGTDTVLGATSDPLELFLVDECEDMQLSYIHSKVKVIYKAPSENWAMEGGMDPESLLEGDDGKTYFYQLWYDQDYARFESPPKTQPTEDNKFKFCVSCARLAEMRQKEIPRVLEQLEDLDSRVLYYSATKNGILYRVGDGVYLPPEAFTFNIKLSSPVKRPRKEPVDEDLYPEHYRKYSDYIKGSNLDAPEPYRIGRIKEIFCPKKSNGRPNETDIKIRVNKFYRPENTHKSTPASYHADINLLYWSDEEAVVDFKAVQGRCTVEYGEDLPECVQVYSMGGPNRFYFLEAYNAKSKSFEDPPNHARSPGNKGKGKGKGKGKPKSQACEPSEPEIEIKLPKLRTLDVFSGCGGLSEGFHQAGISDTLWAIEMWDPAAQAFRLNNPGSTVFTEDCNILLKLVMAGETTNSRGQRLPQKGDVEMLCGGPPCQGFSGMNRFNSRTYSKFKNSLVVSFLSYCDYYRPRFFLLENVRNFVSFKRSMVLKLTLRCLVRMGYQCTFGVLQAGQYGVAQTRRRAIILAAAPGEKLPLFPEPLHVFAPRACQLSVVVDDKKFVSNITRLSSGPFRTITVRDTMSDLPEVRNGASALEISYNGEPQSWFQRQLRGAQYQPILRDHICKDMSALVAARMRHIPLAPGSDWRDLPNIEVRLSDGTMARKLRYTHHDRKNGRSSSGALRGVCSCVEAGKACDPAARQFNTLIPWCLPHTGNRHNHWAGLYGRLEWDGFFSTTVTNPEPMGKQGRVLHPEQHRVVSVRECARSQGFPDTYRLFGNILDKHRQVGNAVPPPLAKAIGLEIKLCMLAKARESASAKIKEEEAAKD

Compound | IC50 (human G9a enzyme) [nM] | IC50 (DNMT1) [nM] | GI50 (CEMO-1) [nM] | GI50 (LAL-CUN-2) [nM] | GI50 (OCI-Ly3) [nM] | GI50 (OCI-Ly10) [nM] | GI50 (HepG2) [nM] | GI50 (Hep3B) [nM] | GI50 (PLC/PRF/5) [nM]
COc1cc2c(NC3CCNCC3)cc(-c3ccc(C)o3)nc2cc1OCCCN1CCCC1 [Compound 3-08] | < 100 | 100 to 500 | 1000 to 10000 | 1000 to 10000 | 1000 to 10000 | ≤ 10000 | – | – | –
CNC(=O)CCNc1cc(-c2ccc(C)o2)nc2cc(OCCCN3CCCC3)c(OC)cc12 [Compound 3-19] | – | – | 1000 to 10000 | – | 100 to 1000 | 100 to 1000 | ≤ 10000 | 1000 to 10000 | 1000 to 10000
COc1cc2c(NC3CCCC3)cc(C)nc2cc1OCCCN1CCCC1 [Compound 3-24] | < 100 | 1000 to 10000 | – | – | – | 1000 to 10000 | – | – | –
COc1cc2c(NC3CCN(C)CC3)cc(-c3ccoc3)nc2cc1OCCCN1CCCC1 [Compound 3-27] | < 100 | 1000 to 10000 | 1000 to 10000 | ≤ 10000 | ≤ 10000 | 100 to 1000 | – | – | –
COc1cc2c(NC3CCN(C)CC3)cc(-c3ccc4occc4c3)nc2cc1OCCCN1CCCC1 [Compound 3-28] | < 100 | 500 to 1000 | 1000 to 10000 | – | – | < 100 | – | – | –
COc1cc2c(NC3CCN(C)CC3)cc(-c3ccccc3)nc2cc1OCCCN1CCCC1 [Compound 3-29] | < 100 | 1000 to 10000 | 100 to 1000 | – | 100 to 1000 | 100 to 1000 | 1000 to 10000 | 1000 to 10000 | 1000 to 10000
COc1cc2c(NC3CCN(C)CC3)cc(-c3ccc(C)[nH]3)nc2cc1OCCCN1CCCC1 [Compound 3-31] | < 100 | 100 to 500 | 1000 to 10000 | ≤ 10000 | 100 to 1000 | 100 to 1000 | – | – | –
COc1cc2c(NC3CCN(C)CC3)cc(-c3ccco3)nc2cc1OCCCN1CCCC1 [Compound 3-40] | < 100 | 100 to 500 | < 100 | 100 to 1000 | < 100 | < 100 | – | – | –
CCc1ccc(-c2cc(NC3CCN(C)CC3)c3cc(OC)c(OCCCN4CCCC4)cc3n2)o1 [Compound 3-41] | – | – | – | 100 to 1000 | – | – | 100 to 1000 | 100 to 1000 | 100 to 1000
CCc1ccc(-c2cc(NCC3CCN(C)CC3)c3cc(OC)c(OCCCN4CCCC4)cc3n2)o1 [Compound 3-42] | – | – | – | 100 to 1000 | 100 to 1000 | – | < 100 | 100 to 1000 | 100 to 1000
CCc1ccc(-c2cc(NC3CCN(C4CC4)CC3)c3cc(OC)c(OCCCN4CCCC4)cc3n2)o1 [Compound 3-48] | < 100 | 100 to 500 | 100 to 1000 | – | 1000 to 10000 | 100 to 1000 | 1000 to 10000 | 1000 to 10000 | ≤ 10000
CCc1ccc(-c2cc(NCC3CCN(C4CC4)CC3)c3cc(OC)c(OCCCN4CCCC4)cc3n2)o1 [Compound 3-49] | 100 to 500 | 100 to 500 | 100 to 1000 | – | < 100 | 100 to 1000 | 100 to 1000 | 100 to 1000 | 100 to 1000
CCc1ccc(-c2cc(NC3CC4CCC(C3)N4C)c3cc(OC)c(OCCCN4CCCC4)cc3n2)o1 (centres unmarked) [Compound 3-50] | < 100 | 100 to 500 | 100 to 1000 | – | 100 to 1000 | 1000 to 10000 | 1000 to 10000 | 1000 to 10000 | 100 to 1000
CCc1ccc(-c2cc(NC3C4CCC3CN(C)C4)c3cc(OC)c(OCCCN4CCCC4)cc3n2)o1 (centres unmarked) [Compound 3-51] | < 100 | 100 to 500 | 100 to 1000 | – | 1000 to 10000 | 100 to 1000 | 100 to 1000 | 100 to 1000 | 100 to 1000
COc1cc2c(NC3CC4(CCN(C)C4)C3)cc(-c3ccc(C)o3)nc2cc1OCCCN1CCCC1 (centres unmarked) [Compound 5-03] | – | – | – | 1000 to 10000 | 100 to 1000 | – | – | – | –
COc1cc2c(NC3CCC34CCN(C)C4)cc(-c3ccc(C)o3)nc2cc1OCCCN1CCCC1 (centres unmarked) [Compound 5-04] | – | – | – | 1000 to 10000 | 100 to 1000 | – | – | – | –
CCc1ccc(-c2cc(NC3CC4(CCN(C)CC4)C3)c3cc(OC)c(OCCCN4CCCC4)cc3n2)o1 [Compound 5-06, 2-(5-ethyl-2-furyl)-6-methoxy-N-(7-methyl-7-azaspiro[3.5]nonan-2-yl)-7-(3-pyrrolidin-1-ylpropoxy)quinolin-4-amine; 2,2,2-trifluoroacetic acid] | < 100 | 100 to 500 | 100 to 1000 | – | 100 to 1000 | 100 to 1000 | 100 to 1000 | 100 to 1000 | 100 to 1000
COc1cc2c(NC3CCN(C)CC3)cc(C3=CCCCC3)nc2cc1OCCCN1CCCC1 [Compound 6-01, 2-(cyclohexen-1-yl)-6-methoxy-N-(1-methyl-4-piperidyl)-7-(3-pyrrolidin-1-ylpropoxy)quinolin-4-amine; 2,2,2-trifluoroacetic acid] | < 100 | 100 to 500 | 1000 to 10000 | 1000 to 10000 | – | – | – | – | –
COc1cc2c(NC3CCN(C)CC3)cc(-c3ccc(C)o3)nc2cc1OC1CCN(C)CC1 [Compound 12-02] | – | – | 100 to 1000 | – | 100 to 1000 | 100 to 1000 | 1000 to 10000 | 1000 to 10000 | 1000 to 10000
COc1cc2c(NC3CC4(CCN(C)CC4)C3)cc(-c3ccc(C)o3)nc2cc1OCC1CCN(C)CC1 [Compound 12-03] | – | – | – | – | < 100 | – | 100 to 1000 | 100 to 1000 | 100 to 1000
COc1cc2c(NC3CCN(C)CC3)cc(-c3ccc(C)o3)nc2cc1OC1CC2(C1)CN(C)C2 [Compound 17-01, 6-methoxy-7-[(2-methyl-2-azaspiro[3.3]heptan-6-yl)oxy]-2-(5-methyl-2-furyl)-N-(1-methyl-4-piperidyl)quinolin-4-amine; 2,2,2-trifluoroacetic acid] | – | – | – | – | < 100 | – | 100 to 1000 | 100 to 1000 | 100 to 1000
